Reference: patent US20260053811A1, “METHODS OF TREATING HYPERTENSION IN OBESE SUBJECTS” (Mineralys Therapeutics, Inc., priority 2022, published 2026)

Tested on: hypertensive subjects
Assay: Adverse events (TEAEs, SAEs, AESI, study drug discontinuation, dose modification);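 note: counts of spontaneously reported adverse events in the Safety Analysis Set, subjects grouped by treatment actually received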
Type: in vivo, human
Settings: Part 1
From the text: In analyses performed on the Safety Analysis Set, subjects will be analyzed according to their actual treatment received.

CC(=O)N[C@H]1CC[C@H](NC(=O)CN2CCN(c3nncc(-c4ccc(C)cc4)n3)CC2)CC1 [Compound A HBr]
On-treatment TEAE: Infections and infestations, Moderate (12.5 mg QD (N = 23)): 0 n (%)
On-treatment TEAE: Investigations (12.5 mg QD (N = 23)): 3 (13.0) n (%)
On-treatment TEAE: Investigations, Mild (12.5 mg QD (N = 23)): 3 (13.0) n (%)
On-treatment TEAE: Investigations, Moderate (12.5 mg QD (N = 23)): 0 n (%)
On-treatment TEAE: Metabolism and nutrition disorders (12.5 mg QD (N = 23)): 6 (26.1) n (%)
On-treatment TEAE: Metabolism and nutrition disorders, Mild (12.5 mg QD (N = 23)): 4 (17.4) n (%)
On-treatment TEAE: Metabolism and nutrition disorders, Moderate (12.5 mg QD (N = 23)): 1 (4.3) n (%)
On-treatment TEAE: Nervous system disorders (12.5 mg QD (N = 23)): 2 (8.7) n (%)
On-treatment TEAE: Nervous system disorders, Mild (12.5 mg QD (N = 23)): 2 (8.7) n (%)
On-treatment TEAE: Orthostatic hypotension (12.5 mg QD (N = 23)): 2 (8.7) n (%)
On-treatment TEAE: Orthostatic hypotension, Mild (12.5 mg QD (N = 23)): 2 (8.7) n (%)
On-treatment TEAE: Psychiatric disorders (12.5 mg QD (N = 23)): 0 n (%)
On-treatment TEAE: Psychiatric disorders, Moderate (12.5 mg QD (N = 23)): 0 n (%)
On-treatment TEAE: Urinary tract infection (12.5 mg QD (N = 23)): 1 (4.3) n (%)
On-treatment TEAE: Urinary tract infection, Mild (12.5 mg QD (N = 23)): 1 (4.3) n (%)
On-treatment TEAE: Vascular disorders (12.5 mg QD (N = 23)): 3 (13.0) n (%)
On-treatment TEAE: Vascular disorders, Mild (12.5 mg QD (N = 23)): 2 (8.7) n (%)
On-treatment TEAE: Vascular disorders, Moderate (12.5 mg QD (N = 23)): 1 (4.3) n (%)
On-treatment TEAE: any, Mild (12.5 mg QD (N = 23)): 12 (52.2) n (%)
On-treatment TEAE: any, Moderate (12.5 mg QD (N = 23)): 3 (13.0) n (%)
On-treatment TEAE: any, Severe (12.5 mg QD (N = 23)): 1 (4.3) n (%)
Subjects with any On-treatment TEAEs leading to withdrawal from study drug (12.5 mg QD (N = 23)): 4 (17.4) n (%)
TEAE leading to permanent discontinuation from study drug: Activated partial thromboplastin time prolonged (12.5 mg QD (N = 23)): 0 n (%)
TEAE leading to permanent discontinuation from study drug: Cardiac disorders (12.5 mg QD (N = 23)): 1 (4.3) n (%)
TEAE leading to permanent discontinuation from study drug: Coronary artery disease (12.5 mg QD (N = 23)): 1 (4.3) n (%)
TEAE leading to permanent discontinuation from study drug: Dizziness (12.5 mg QD (N = 23)): 1 (4.3) n (%)
TEAE leading to permanent discontinuation from study drug: Hyperkalaemia (12.5 mg QD (N = 23)): 2 (8.7) n (%)
TEAE leading to permanent discontinuation from study drug: Hypertension (12.5 mg QD (N = 23)): 0 n (%)
TEAE leading to permanent discontinuation from study drug: Hypotension (12.5 mg QD (N = 23)): 0 n (%)
TEAE leading to permanent discontinuation from study drug: Investigations (12.5 mg QD (N = 23)): 0 n (%)
TEAE leading to permanent discontinuation from study drug: Metabolism and nutrition disorders (12.5 mg QD (N = 23)): 2 (8.7) n (%)
TEAE leading to permanent discontinuation from study drug: Nervous system disorders (12.5 mg QD (N = 23)): 1 (4.3) n (%)
TEAE leading to permanent discontinuation from study drug: Orthostatic hypotension (12.5 mg QD (N = 23)): 0 n (%)
TEAE leading to permanent discontinuation from study drug: Vascular disorders (12.5 mg QD (N = 23)): 0 n (%)
On-treatment TEAE: Blood and lymphatic system disorders (25 mg BID (N = 30)): 2 (6.7) n (%)
On-treatment TEAE: Blood and lymphatic system disorders, Mild (25 mg BID (N = 30)): 2 (6.7) n (%)
On-treatment TEAE: Blood creatinine increased (25 mg BID (N = 30)): 0 n (%)
On-treatment TEAE: Blood creatinine increased, Mild (25 mg BID (N = 30)): 0 n (%)
On-treatment TEAE: Cardiac disorders (25 mg BID (N = 30)): 0 n (%)
On-treatment TEAE: Cortisol decreased (25 mg BID (N = 30)): 1 (3.3) n (%)
On-treatment TEAE: Cortisol decreased, Mild (25 mg BID (N = 30)): 1 (3.3) n (%)
On-treatment TEAE: Dizziness (25 mg BID (N = 30)): 0 n (%)
On-treatment TEAE: Gastrointestinal disorders (25 mg BID (N = 30)): 1 (3.3) n (%)
On-treatment TEAE: Gastrointestinal disorders, Mild (25 mg BID (N = 30)): 1 (3.3) n (%)
On-treatment TEAE: General disorders and administration site conditions (25 mg BID (N = 30)): 0 n (%)
On-treatment TEAE: General disorders and administration site conditions, Mild (25 mg BID (N = 30)): 0 n (%)
On-treatment TEAE: Glomerular filtration rate decreased (25 mg BID (N = 30)): 0 n (%)
On-treatment TEAE: Glomerular filtration rate decreased, Mild (25 mg BID (N = 30)): 0 n (%)
On-treatment TEAE: Headache (25 mg BID (N = 30)): 2 (6.7) n (%)
On-treatment TEAE: Headache, Mild (25 mg BID (N = 30)): 2 (6.7) n (%)
On-treatment TEAE: Hyperkalaemia (25 mg BID (N = 30)): 9 (30.0) n (%)
On-treatment TEAE: Hyperkalaemia, Mild (25 mg BID (N = 30)): 7 (23.3) n (%)
On-treatment TEAE: Hyperkalaemia, Moderate (25 mg BID (N = 30)): 2 (6.7) n (%)
On-treatment TEAE: Hyperkalaemia, Severe (25 mg BID (N = 30)): 0 n (%)
On-treatment TEAE: Hypertension (25 mg BID (N = 30)): 1 (3.3) n (%)
On-treatment TEAE: Hypertension, Moderate (25 mg BID (N = 30)): 0 n (%)
On-treatment TEAE: Infections and infestations (25 mg BID (N = 30)): 3 (10.0) n (%)
On-treatment TEAE: Infections and infestations, Mild (25 mg BID (N = 30)): 2 (6.7) n (%)
On-treatment TEAE: Infections and infestations, Moderate (25 mg BID (N = 30)): 1 (3.3) n (%)
On-treatment TEAE: Investigations (25 mg BID (N = 30)): 3 (10.0) n (%)
On-treatment TEAE: Investigations, Mild (25 mg BID (N = 30)): 2 (6.7) n (%)
On-treatment TEAE: Investigations, Moderate (25 mg BID (N = 30)): 1 (3.3) n (%)
On-treatment TEAE: Metabolism and nutrition disorders (25 mg BID (N = 30)): 10 (33.3) n (%)
On-treatment TEAE: Metabolism and nutrition disorders, Mild (25 mg BID (N = 30)): 8 (26.7) n (%)
On-treatment TEAE: Metabolism and nutrition disorders, Moderate (25 mg BID (N = 30)): 2 (6.7) n (%)
On-treatment TEAE: Nervous system disorders (25 mg BID (N = 30)): 3 (10.0) n (%)
On-treatment TEAE: Nervous system disorders, Mild (25 mg BID (N = 30)): 2 (6.7) n (%)
On-treatment TEAE: Orthostatic hypotension (25 mg BID (N = 30)): 0 n (%)
On-treatment TEAE: Orthostatic hypotension, Mild (25 mg BID (N = 30)): 0 n (%)
On-treatment TEAE: Psychiatric disorders (25 mg BID (N = 30)): 0 n (%)
On-treatment TEAE: Psychiatric disorders, Moderate (25 mg BID (N = 30)): 0 n (%)
On-treatment TEAE: Urinary tract infection (25 mg BID (N = 30)): 3 (10.0) n (%)
On-treatment TEAE: Urinary tract infection, Mild (25 mg BID (N = 30)): 2 (6.7) n (%)
On-treatment TEAE: Vascular disorders (25 mg BID (N = 30)): 1 (3.3) n (%)
On-treatment TEAE: Vascular disorders, Mild (25 mg BID (N = 30)): 1 (3.3) n (%)
On-treatment TEAE: Vascular disorders, Moderate (25 mg BID (N = 30)): 0 n (%)
On-treatment TEAE: any, Mild (25 mg BID (N = 30)): 14 (46.7) n (%)
On-treatment TEAE: any, Moderate (25 mg BID (N = 30)): 4 (13.3) n (%)
On-treatment TEAE: any, Severe (25 mg BID (N = 30)): 0 n (%)
Subjects with any On-treatment TEAEs leading to withdrawal from study drug (25 mg BID (N = 30)): 1 (3.3) n (%)
TEAE leading to permanent discontinuation from study drug: Activated partial thromboplastin time prolonged (25 mg BID (N = 30)): 0 n (%)
TEAE leading to permanent discontinuation from study drug: Cardiac disorders (25 mg BID (N = 30)): 0 n (%)
TEAE leading to permanent discontinuation from study drug: Coronary artery disease (25 mg BID (N = 30)): 0 n (%)
TEAE leading to permanent discontinuation from study drug: Dizziness (25 mg BID (N = 30)): 0 n (%)
TEAE leading to permanent discontinuation from study drug: Hyperkalaemia (25 mg BID (N = 30)): 1 (3.3) n (%)
TEAE leading to permanent discontinuation from study drug: Hypertension (25 mg BID (N = 30)): 1 (3.3) n (%)
TEAE leading to permanent discontinuation from study drug: Hypotension (25 mg BID (N = 30)): 0 n (%)
TEAE leading to permanent discontinuation from study drug: Investigations (25 mg BID (N = 30)): 0 n (%)
TEAE leading to permanent discontinuation from study drug: Metabolism and nutrition disorders (25 mg BID (N = 30)): 1 (3.3) n (%)
TEAE leading to permanent discontinuation from study drug: Nervous system disorders (25 mg BID (N = 30)): 0 n (%)
TEAE leading to permanent discontinuation from study drug: Orthostatic hypotension (25 mg BID (N = 30)): 0 n (%)
TEAE leading to permanent discontinuation from study drug: Vascular disorders (25 mg BID (N = 30)): 1 (3.3) n (%)
On-treatment TEAE: Blood and lymphatic system disorders (50 mg QD (N = 28)): 0 n (%)
On-treatment TEAE: Blood and lymphatic system disorders, Mild (50 mg QD (N = 28)): 0 n (%)
On-treatment TEAE: Blood creatinine increased (50 mg QD (N = 28)): 0 n (%)
On-treatment TEAE: Blood creatinine increased, Mild (50 mg QD (N = 28)): 0 n (%)
On-treatment TEAE: Cardiac disorders (50 mg QD (N = 28)): 1 (3.6) n (%)
On-treatment TEAE: Cortisol decreased (50 mg QD (N = 28)): 0 n (%)
On-treatment TEAE: Cortisol decreased, Mild (50 mg QD (N = 28)): 0 n (%)
On-treatment TEAE: Dizziness (50 mg QD (N = 28)): 2 (7.1) n (%)
On-treatment TEAE: Gastrointestinal disorders (50 mg QD (N = 28)): 1 (3.6) n (%)
On-treatment TEAE: Gastrointestinal disorders, Mild (50 mg QD (N = 28)): 1 (3.6) n (%)
